Measured values as given in patent US20230339981A1, “KRAS G12D MODULATING COMPOUNDS” (priority 2022, published 2023).

How the values were obtained:
GP2D (KRAS G12D) cells = assay: 2D cell viability assay (CellTiter-Glo); format: cell-based; conditions: GP2d, 96 h, 4 days
Experimental: Example B. 2D Cell Viability Assay
Compounds were tested in a 384-well format for their ability to inhibit the viability of GP2D (KRAS G12D) cells in 2D assays. Compounds were serially diluted (1:3) in DMSO. The LabCyte ECHO Acoustic dispenser system was used to pre-spot assay plates with 200 nL of test molecule per well. 1000 cells/well (40 μL volume per well) in RPMI medium with 10% FBS, and Penicillin-Streptomycin-Glutamine were plated in pre-spotted 384-well plates (Greiner, Catalog #781076) on the BioTEK EL406 liquid dispenser with a 5 μL dispensing cassette (BioTek 7170011). The plates were incubated at 37° C., 5% CO2 for 4 days before addition of CellTiter-Glo (CTG) reagent and measurement of luminescence signal. EC50 values were defined as the compound concentration that causes a 50% decrease in luminescence signal and were calculated using a sigmoidal dose-response model to generate curve fits.

GDP-loaded KRAS G12D = GDP-loaded KRAS G12D (Homo sapiens (Human), UniProt P01116, G12D); assay: KRAS G12D (GDP) biochemical assay (TR-FRET probe displacement); format: binding; conditions: 2 hours
Sequence of GDP-loaded KRAS G12D (P01116-2 other isoform, or with tags, fused parts or gaps G12D): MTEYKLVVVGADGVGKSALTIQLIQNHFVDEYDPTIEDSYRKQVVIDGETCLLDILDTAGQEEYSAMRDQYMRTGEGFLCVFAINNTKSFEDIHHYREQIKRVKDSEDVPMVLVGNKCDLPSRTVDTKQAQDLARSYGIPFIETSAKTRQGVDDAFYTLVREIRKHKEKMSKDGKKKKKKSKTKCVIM
Experimental: Example A. KRAS G12D (GDP) Biochemical Assay
Compounds were tested for binding to GDP-loaded KRAS G12D in a 384-well assay format using a TR-FRET probe displacement assay in buffer consisting of 50 mM Hepes (pH 7.4), 150 mM NaCl, 5 mM MgCl2 and 0.005% Tween-20. […] Compounds were serially diluted (1:3) in DMSO. The LabCyte ECHO Acoustic dispenser system was used to pre-spot the assay plates (384-well Non-Binding Surface plates, Corning, Catalog #3824) with 50 nL of compound. The compounds were pre-incubated with 5 μL of 2× final enzyme concentration for 30 minutes before adding 5 μL of 2× final concentration of Eu-streptavidin and TR-FRET probe (10 μL final reaction volume). The plates were incubated at room temperature for 2 hours before measuring TR-FRET ratio on the Envision plate reader. IC50 values were defined as the compound concentration that causes a 50% decrease in TR-FRET ratio and were calculated using a sigmoidal dose-response model to generate curve fits.

## C#Cc1c(F)ccc2cc(O)cc(-c3nc4c5c(nc(OC[C@@]67CCCN6C[C@H](OC(C(F)(F)F)(C(F)(F)F)C(F)(F)F)C7)nc5c3F)N3C[C@H]5CC[C@H](N5)[C@H]3CC4)c12 [Example 129, 5-ethynyl-6-fluoro-4-((5aR,6S,9R)-1-fluoro-12-((trans-2-((1,1,1,3,3,3-hexafluoro-2-(trifluoromethyl)propan-2-yl)oxy)tetrahydro-1H-pyrrolizin-7a(5H)-yl)methoxy)-4,5,5a,6,7,8,9,10-octahydro-3,10a,11,13,14-pentaaza-6,9-methanonaphtho[1,8-ab]heptalen-2-yl)naphthalen-2-ol]
GP2D (KRAS G12D) cells
  EC50: 13.3 nM
GDP-loaded KRAS G12D
  IC50: 2.7 nM

## C#Cc1c(F)ccc2cccc(-c3nc4c5c(nc(OC[C@@]67CCCN6C[C@H](OC(C(F)(F)F)(C(F)(F)F)C(F)(F)F)C7)nc5c3F)N3C[C@H]5CC[C@H](N5)[C@H]3CC4)c12 [Example 130, (5aR,6S,9R)-2-(8-ethynyl-7-fluoronaphthalen-1-yl)-1-fluoro-12-((trans-2-((1,1,1,3,3,3-hexafluoro-2-(trifluoromethyl)propan-2-yl)oxy)tetrahydro-1H-pyrrolizin-7a(5H)-yl)methoxy)-4,5,5a,6,7,8,9,10-octahydro-3,10a,11,13,14-pentaaza-6,9-methanonaphtho[1,8-ab]heptalene]
GP2D (KRAS G12D) cells
  EC50: 100 nM
GDP-loaded KRAS G12D
  IC50: 100 nM

## C#Cc1c(F)ccc2cc(O)cc(-c3nc4c5c(nc(OC[C@@]67CCCN6C[C@H](F)C7)nc5c3F)N3C[C@H]5CC[C@H](N5)[C@H]3[C@@H](C)O4)c12 [Example 61, 5-ethynyl-6-fluoro-4-((5R,5aS,6S,9R)-1-fluoro-12-(((2R,7aS)-2-fluorotetrahydro-1H-pyrrolizin-7a(5H)-yl)methoxy)-5-methyl-5a,6,7,8,9,10-hexahydro-5H-4-oxa-3,10a,11,13,14-pentaaza-6,9-methanonaphtho[1,8-ab]heptalen-2-yl)naphthalen-2-ol]
GP2D (KRAS G12D) cells
  EC50: 520 nM
GDP-loaded KRAS G12D
  IC50: 26 nM

## C#Cc1c(F)ccc2cc(O)cc(-c3nc4c5c(nc(OC[C@@]67CCCN6[C@H](COc6cc(C(F)(F)F)ncn6)CC7)nc5c3F)N3C[C@H]5CC[C@H](N5)[C@H]3CC4)c12 [Example 149, 5-ethynyl-6-fluoro-4-((5aR,6S,9R)-1-fluoro-12-(((3S,7aS)-3-(((6-(trifluoromethyl)pyrimidin-4-yl)oxy)methyl)tetrahydro-1H-pyrrolizin-7a(5H)-yl)methoxy)-4,5,5a,6,7,8,9,10-octahydro-3,10a,11,13,14-pentaaza-6,9-methanonaphtho[1,8-ab]heptalen-2-yl)naphthalen-2-ol]
GP2D (KRAS G12D) cells
  EC50: 0.3 nM
GDP-loaded KRAS G12D
  IC50: < 0.1 nM

## C#Cc1c(F)ccc2cc(O)cc(-c3nc4c5c(nc(OC[C@@]67CCCN6C[C@H](F)C7)nc5c3F)N3C[C@H]5CC[C@H](N5)[C@@H]3CCO4)c12 [Example 77, 5-ethynyl-6-fluoro-4-((6aS,7S,10R)-1-fluoro-13-(((2R,7aS)-2-fluorotetrahydro-1H-pyrrolizin-7a(5H)-yl)methoxy)-5,6,6a,7,8,9,10,11-octahydro-4-oxa-3,11a,12,14,15-pentaaza-7,10-methanocyclohepta[4,5]cycloocta[1,2,3-de]naphthalen-2-yl)naphthalen-2-ol]
GP2D (KRAS G12D) cells
  EC50: 83 nM
GDP-loaded KRAS G12D
  IC50: 6 nM

## C#Cc1c(F)ccc2cc(O)cc(-c3nc4c5c(nc(OC[C@@]67CCCN6C[C@H](F)C7)nc5c3F)N3C[C@H]5CC[C@H](N5)[C@@H]3[C@H](C)C4)c12 [Example 79, 5-ethynyl-6-fluoro-4-((5R,5aS,6S,9R)-1-fluoro-12-(((2R,7aS)-2-fluorotetrahydro-1H-pyrrolizin-7a(5H)-yl)methoxy)-5-methyl-4,5,5a,6,7,8,9,10-octahydro-3,10a,11,13,14-pentaaza-6,9-methanonaphtho[1,8-ab]heptalen-2-yl)naphthalen-2-ol]
GP2D (KRAS G12D) cells
  EC50: 15.3 nM
GDP-loaded KRAS G12D
  IC50: 7 nM

## C#Cc1c(F)ccc2cccc(-c3nc4c5c(nc(OCC6(CN7CCC8(CC7)CC8)CC6)nc5c3F)N3C[C@H]5CC[C@H](N5)[C@H]3CCC4)c12 [Example 178, (6aR,7S,10R)-13-((1-((6-azaspiro[2.5]octan-6-yl)methyl)cyclopropyl)methoxy)-2-(8-ethynyl-7-fluoronaphthalen-1-yl)-1-fluoro-5,6,6a,7,8,9,10,11-octahydro-4H-3,11a,12,14,15-pentaaza-7,10-methanocyclohepta[4,5]cycloocta[1,2,3-de]naphthalene]
GP2D (KRAS G12D) cells
  EC50: 37.4 nM
GDP-loaded KRAS G12D
  IC50: 0.7 nM

## C#Cc1c(F)ccc2cccc(-c3nc4c5c(nc(OC[C@@]67CCCN6[C@H](COCC(F)(F)F)CC7)nc5c3F)N3C[C@H]5CC[C@H](N5)[C@H]3CC4)c12 [Example 164, (5aR,6S,9R)-2-(8-ethynyl-7-fluoronaphthalen-1-yl)-1-fluoro-12-(((3S,7aS)-3-((2,2,2-trifluoroethoxy)methyl)tetrahydro-1H-pyrrolizin-7a(5H)-yl)methoxy)-4,5,5a,6,7,8,9,10-octahydro-3,10a,11,13,14-pentaaza-6,9-methanonaphtho[1,8-ab]heptalene]
GP2D (KRAS G12D) cells
  EC50: 38 nM
GDP-loaded KRAS G12D
  IC50: 0.3 nM

## Fc1ccc2c(-c3nc4c5c(nc(OC[C@@]67CCCN6C[C@H](F)C7)nc5c3F)N3C[C@H]5CC[C@H](N5)[C@H]3CO4)cccc2c1 [Example 66, (5aS,6S,9R)-1-fluoro-2-(6-fluoronaphthalen-1-yl)-12-(((2R,7aS)-2-fluorotetrahydro-1H-pyrrolizin-7a(5H)-yl)methoxy)-5a,6,7,8,9,10-hexahydro-5H-4-oxa-3,10a,11,13,14-pentaaza-6,9-methanonaphtho[1,8-ab]heptalene]
GP2D (KRAS G12D) cells
  EC50: > 1000 nM
GDP-loaded KRAS G12D
  IC50: 860 nM

## Oc1cc(-c2nc3c4c(nc(OC[C@@]56CCCN5C[C@H](F)C6)nc4c2F)N2C[C@H]4CC[C@H](N4)[C@H]2CO3)c2c(CC3CC3)c(F)ccc2c1 [Example 14, 5-(cyclopropylmethyl)-6-fluoro-4-((5aS,6S,9R)-1-fluoro-12-(((2R,7aS)-2-fluorotetrahydro-1H-pyrrolizin-7a(5H)-yl)methoxy)-5a,6,7,8,9,10-hexahydro-5H-4-oxa-3,10a,11,13,14-pentaaza-6,9-methanonaphtho[1,8-ab]heptalen-2-yl)naphthalen-2-ol]
GP2D (KRAS G12D) cells
  EC50: 530 nM
GDP-loaded KRAS G12D
  IC50: 34 nM

## C#Cc1c(F)ccc2cccc(-c3nc4c5c(nc(OCC6(CN7CCC[Si](C)(C)CC7)CC6)nc5c3F)N3C[C@H]5CC[C@H](N5)[C@@H]3[C@@H](C)C4)c12 [Example 100, (5S,5aS,6S,9R)-12-((1-((4,4-dimethyl-1,4-azasilepan-1-yl)methyl)cyclopropyl)methoxy)-2-(8-ethynyl-7-fluoronanhthalen-1-yl)-1-fluoro-5-methyl-4,5,5a,6,7,8,9,10-octahydro-3,10a,11,13,14-pentaaza-6,9-methanonaphtho[1,8-ab]heptalene]
GP2D (KRAS G12D) cells
  EC50: 373 nM
GDP-loaded KRAS G12D
  IC50: 31.8 nM

## C#Cc1c(F)ccc2cc(O)cc(-c3nc4c5c(nc(OCC6(CN7CCC(F)CC7)CC6)nc5c3F)N3C[C@H]5CC[C@H](N5)[C@H]3CC4)c12 [Example 68, 5-ethynyl-6-fluoro-4-((5aR,6S,9R)-1-fluoro-12-((1-((4-fluoropiperidin-1-yl)methyl)cyclopropyl)methoxy)-4,5,5a,6,7,8,9,10-octahydro-3,10a,11,13,14-pentaaza-6,9-methanonaphtho[1,8-ab]heptalen-2-yl)naphthalen-2-ol]
GP2D (KRAS G12D) cells
  EC50: 0.6 nM
GDP-loaded KRAS G12D
  IC50: 0.05 nM
